melting point | Structure (SMILES)
> 300 °C | O=C1N=C2C=CC=CN2C1(Cc1ccc([N+](=O)[O-])cc1)Cc1ccc([N+](=O)[O-])cc1
271 to 272 °C | O=C1N=C2C=CC=CN2C1(Cc1cccc(Cl)c1)Cc1cccc(Cl)c1 [Compound 19, 3,3-bis(3-chlorobenzyl)imidazo[1,2-a]pyridin-2(3H)-one]
164.5 to 167.5 °C | O=C1N=C2c3ccccc3C=CN2C12CCCC2 [Compound 75, spiro[imidazo[2,1-a]isoquinolin-2(3H)-one-3,1′-cyclopentane]]
108 to 110 °C | C=CCC1(CC=C)C(=O)N=C2c3ccccc3C=CN21 [Compound 68, 3,3-diallylimidazo[2,1-a]isoquinolin-2(3H)-one]
274 to 275 °C | COC1=CC=CN2C1=NC(=O)C2(Cc1ccccc1)Cc1ccccc1 [Compound 3, 3,3-dibenzyl-8-methoxyimidazo[1,2-a]pyridin-2(3H)-one]
250 °C | O=C1N=C2C(NCc3ccccc3)=CC=CN2C1(Cc1ccccc1)Cc1ccccc1 [Compound 37, 3,3-dibenzyl-8-benzylaminoimidazo[1,2-a]pyridin-2(3H)-one]
200 to 202 °C | COC1=CC=CN2C1=NC(=O)C21CC=CC1 [Compound 82, spiro[8-methoxyimidazo[1,2-a]pyridin-2(3H)-one-3,4′-(1′-cyclopentene)]]
248 to 251 °C | COc1ccc(CC2(Cc3ccc(OC)cc3)C(=O)N=C3C=CC=CN32)cc1 [Compound 20, 3,3-bis(4-methoxybenzyl)imidazo[1,2-a]pyridin-2(3H)-one]
283 to 285 °C | O=C1N=C2C(O)=CC=CN2C1(Cc1ccccc1)Cc1ccccc1 [Compound 36, 3,3-dibenzyl-8-hydroxyimidazo[1,2-a]pyridin-2(3H)-one]
268 to 269 °C | O=C1N=C2C(OC3CCCC3)=CC=CN2C1(Cc1ccccc1)Cc1ccccc1 [Compound 12, 3,3-dibenzyl-8-cyclopentyloxyimidazo[1,2-a]pyridin-2(3H)-one]
148 °C (dec.) | O=C1N=C2C=CC=CN2C12Cc1cccc(F)c1C2 (centres unmarked) [Compound 56, spiro[imidazo[1,2-a]pyridin-2(3H)-one-3,2′-(4′-fluoroindan)]]
234 to 235 °C | CC(c1ccccc1)C1(C(C)c2ccccc2)C(=O)N=C2C(OCc3ccccc3)=CC=CN21 (centres unmarked) [Compound 8, 8-benzyloxy-3,3-bis(1-phenylethyl)imidazo[1,2-a]pyridin-2(3H)-one]
73 to 75 °C | CCCC1(CCC)C(=O)N=C2C=CC=CN21 [Compound 29, 3,3-dipropylimidazo[1,2-a]pyridin-2(3H)-one]
269 to 271 °C | O=C1N=C2C=CC=CN2C1(Cc1ccc(F)cc1F)Cc1ccc(F)cc1F [Compound 28, 3,3-bis(2,4-difluorobenzyl)imidazo[1,2-a]pyridin-2(3H)-one]
262 °C (dec.) | O=C1N=C2C=CC=CN2C12Cc1cccc3cccc(c13)C2 [Compound 27, spiro[imidazo[1,2-a]pyridin-2(3H)-one-3,2′-[2,3]dihydrophenarene]]
167 to 171 °C | O=C1N=C2C=CC=CN2C12Cc1ccc(I)cc1C2 (centres unmarked) [Compound 58, spiro[imidazo[1,2-a]pyridin-2(3H)-one-3,2′-(5′-iodoindan)]]
228 to 230 °C | CC1=CC=CN2C1=NC(=O)C2(Cc1ccncc1)Cc1ccncc1 [Compound 16, 8-methyl-3,3-bis(4-pyridylmethyl)imidazo[1,2-a]pyridin-2(3H)-one]
> 300 °C | Cc1ccc(CC2(Cc3ccc(C)cc3)C(=O)N=C3SC=CN32)cc1 [Compound 46, 5,5-bis(4-methylbenzyl)imidazo[2,1-b]thiazol-6(5H)-one]
294 °C (dec.) | N#Cc1ccc(CC2(Cc3ccc(C#N)cc3)C(=O)N=C3C=CC=CN32)cc1 [Compound 22, 3,3-bis(4-cyanobenzyl)imidazo[1,2-a]pyridin-2(3H)-one]
247.7 °C (dec.) | N#Cc1cccc2c1CC1(C2)C(=O)N=C2C=CC=CN21 (centres unmarked) [Compound 59, spiro[imidazo[1,2-a]pyridin-2(3H)-one-3,2′-(4′-cyanoindan)]]

From patent US20080103158A1, “METHODS FOR TREATING DELAYING THE PROGRESSION OF ALZHEIMER'S DISEASE WITH HETEROCYCLIC COMPOUNDS” (ZENYAKU KOGYO KABUSHIKI KAISHA, priority 2006, published 2008)
